Experimental findings from US20090042849A1, “Phosphorylation of 5-lipoxygenase at ser523 and uses thereof” (priority 2006, published 2009) are described below.

One experiment has as its system rat infarct model. Description: rat infarct model, infarct size. It is filed as in vivo. Conditions: ATV 2 mg/kg/d, cilostazol 20 mg/kg/d, alone or combined. The procedure:
The effects of cilostazol (Pletal) and atorvastatin on myocardial protection was measured in a rat infarct model. Pletal is a phosphodiesterase III inhibitor, thus increasing intracellular cAMP levels. cAMP activates PKA. ATV at 2 mg/kg/d had no effect. Cilostazol 20 mg/kg/d reduced infarct size. However, when combined with ATV 2 mg/kg/d the effect was much greater. There are 8 rats in the control and ATV 2 mg/kg/d groups and 6 rats in the cilostazol and the combination groups. Infarct size in the ATV 2 mg/kg/d (30.48±1.46%) is not different from the controls (33.97±2.76%).

The test system of the next experiment is cPLA2. Description: immunofluorescence of cPLA2 in adult rat cardiac myocytes. It is filed as cell-based. Conditions: PIO 10 μM, ATV 10 μM, H-89 0.1 μM, 12 hours. As to the method: (§1) Cardiac myocytes were isolated from adult Sprague-Dawley rats (250-300 g, male). Animals were heparinized (1,000-2,000 units i.p.) 5 min before being anesthetized with ketamine (100 mg/kg) and xylazine (10 mg/kg), and the hearts were removed and placed in ice-cold heart media solution (in mmol/l: 112 NaCl, 5.4 KCl, 1 MgCl2, 9 NaH2PO4, and 11.1 D-glucose; supplemented with 10 HEPES, 30 taurine, 2 DL-carnitine, and 2 creatine, pH. 7.4). The hearts were perfused retrogradely in a Langendorff apparatus with Ca^2+-free heart media for 5 min at 5 ml/min at 37° C., followed by perfusion with Ca^2+-free heart media containing collagenase II, 210 U/mg (Worthington, Lakewood, N.J.) for 20 min. After perfusion, both ventricles were removed from the heart and minced in collagenase II-containing heart media for 10-15 min. The cell solution was then washed several times to remove collagenase II and reexposed to 1.2 mM Ca2^+ over 25 min to produce Ca2^+-tolerant cardiac myocytes. […]
Immunofluorescent labeling was performed on paraffin sections (5-μm) of 4% formaldehyde-fixed rat cardiac tissue, as described previously (22). […] All the slides were viewed under an Olympus BX51 microscope [images recorded by a DP70 Digital camera (Olympus Optical Co., Ltd., Tokyo, Japan)] or confocal microscope (Bio-Rad 2100 (Hercules, Calif.).

In a further experiment the test system is LTB4. Nature of the experiment: LTB4 levels in adult rat cardiac myocytes (ELISA). In kind it is cell-based. Conditions: PIO 10 μM, ATV 10 μM, H-89 0.1 μM, 12 hours. As to the method:
as §1, with “myocytes. Myocytes were then plated in 4% FBS on laminin (2 μg/cm^2)-coated plates for 1 h and incubated at 37° C. in 5% CO2 for 12-24 h before experiments (21). Cells were incubated with 1) vehicle (0.07% ethanol); 2) PIO (10 μM)+ATV (10 μM); 3) H-89 (0.1 μM); or 4) PIO+ATV+H-89 for 12 hours. The supernatants were collected directly for LTB4 analyses by ELISA and the cells were harvested for immunoblotting.” for “myocytes.”
In general terms: ELISA stands for enzyme-linked immunosorbent assay.

For the compound `CC(C)c1c(C(=O)Nc2ccccc2)c(-c2ccccc2)c(-c2ccc(F)cc2)n1CCC(O)CC(O)CC(=O)O` (stereo not shown) [ATV, 7-[2-(4-fluorophenyl)-5-(1-methylethyl)-3-phenyl-4-(phenylcarbamoyl)-1H-pyrrol-1-yl]-3,5-dihydroxy-heptanoic acid], in the experiment on rat infarct model, the Infarct size worked out at 30.48±1.46% and the “effect on infarct size (in words)” value is on record as “no effect”.
Take `O=S(=O)(NCCNC/C=C/c1ccc(Br)cc1)c1cccc2cnccc12` [H-89]: the cPLA2 expression entry with cPLA2 is “no effect”. Further, the LTB4 levels result in the experiment on LTB4 is “no significant effect”.
